In US12187727B2, “Methods for antagonizing a melanocortin 4 receptor” (Pfizer Inc., priority 2020, dated 2025):
Like-named read-outs stand apart in the source and are kept apart here.

Assays:
hMC4R = hMC4R (Homo sapiens (Human), UniProt P32245); assay: In vitro binding affinity assay using hMC4R (radioligand competition binding, [125I]-(Nle4, D-Phe7)-α-MSH); conditions: geometric mean
Procedure: Example AA. In Vitro Binding Affinity Assay Using hMC4R
The binding affinity of test compounds at the […] (hMC4R) was assessed using a radioligand competition binding assay. […] Cell membranes were bulked and frozen until the assay was performed.
Compounds were solubilized in 100% dimethyl sulfoxide (DMSO) to a concentration of 30 mM. A 10-point intermediate dilution series using half log dilutions was created in 100% DMSO with a top concentration of 0.03 mM. […] The final compound range in the assay was 300 nM to 0.01 nM with a final DMSO concentration of 1%. […] The exact concentration of radioligand used for each experiment was determined by liquid scintillation counting and adjusted if necessary.
Frozen hMC4R cell membranes were thawed and Dounce homogenized. Homogenates were resuspended in assay buffer to a concentration of 2 μg per well. […] The plates were incubated for 2 hours at room temperature.
The raw data (expressed as counts per minute) were analyzed using ActivityBase (IDBS Data Management Software). […] Equilibrium dissociation constant for inhibitor of ligand and receptor interaction (Ki) values were then calculated from the IC50 values using the Cheng-Prusoff equation: Ki=IC50/(1+([L]/Kd)), where [L] is the concentration of the radioligand used in the experiment and Kd is the affinity of the radioligand (determined in separate saturation experiments).

[1] = target: human Melanocortin-4 receptor (MC4R) (Homo sapiens (Human), UniProt P32245); assay: Functional in vitro MC4R antagonist potency assay (cAMP HTRF in CHO cells); type: cell-based
Sequence of human Melanocortin-4 receptor (MC4R) (P32245 whole entry): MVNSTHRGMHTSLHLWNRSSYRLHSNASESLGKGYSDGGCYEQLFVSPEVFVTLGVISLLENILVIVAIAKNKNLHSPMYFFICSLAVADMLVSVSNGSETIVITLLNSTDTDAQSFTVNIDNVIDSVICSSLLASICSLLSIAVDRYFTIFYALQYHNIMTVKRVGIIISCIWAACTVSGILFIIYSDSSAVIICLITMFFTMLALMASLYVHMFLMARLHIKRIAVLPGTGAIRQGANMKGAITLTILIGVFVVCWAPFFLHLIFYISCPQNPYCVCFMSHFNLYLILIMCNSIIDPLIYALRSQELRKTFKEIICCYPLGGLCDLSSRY
Summary of the method: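 CHO cells stably expressing human MC4R were preincubated 30 min at 37 °C with compound ([…], 0.1% DMSO), then stimulated 30 min with EC80 αMSH (200 nM). Intracellular cAMP quantified by HTRF competitive immunoassay and normalized to agonist-stimulated and vehicle-only wells.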

[2] = read-out: Ki (nM) geometric mean
[3] = read-out: Kb (nM) Antagonist geometric mean
[4] = human MC4R in CHO cells, cAMP HTRF, 200 nM aMSH challenge, Kb from IC50 by Leff-Dougall equation, geometric mean, read-out: Kb (nM) Antagonist geometric

Sequence of hMC4R (P32245 whole entry): as above

Ki (hMC4R; [2])	Kb [1, 3]	Ki (hMC4R; read-out: Ki (nM) geometric)	Kb [1, 4]	Compound
210 nM	> 97 nM	–	–	COc1cc([C@@H](C)C(=O)N2CC[C@@]3(CCc4ccc(C)nc4N3)C2)nc(C)n1 (single isomer, unassigned) [Example 26, 2-(6-methoxy-2-methylpyrimidin-4-yl)-1-(7-methyl-3,4-dihydro-1H-spiro[1,8-naphthyridine-2,3′-pyrrolidin]-1′-yl)propan-1-one]
82 nM	> 95 nM	–	–	Cc1nc2c(cc1-c1ncccn1)CC[C@@]1(CCN(C(=O)[C@H](C)c3ccc(Cl)cc3Cl)C1)N2 (single isomer, unassigned) [Example 35]
190 nM	> 62 nM	–	–	COc1nccc([C@@H](C)C(=O)N2CC[C@@]3(CCc4cc(-c5ncccn5)c(C)nc4N3)C2)c1F (single isomer, unassigned) [Example 58]
–	–	1.2 nM	3.5 nM	Cc1nc2c(cc1-c1ncccn1)CC[C@@]1(CCN(C(=O)[C@H](C)c3ccnc(OC(F)F)c3)C1)N2 (single isomer, unassigned) [Example 195]
4.5 nM	1.2 nM	–	–	COc1cc([C@@H](C)C(=O)N2CCC3(CCc4cc(-c5nnn(C)n5)c(C)nc4N3)C2)c(Cl)cn1 (single isomer, unassigned) [Example 2]
–	–	10 nM	3.8 nM	COc1cc([C@@H](C)C(=O)N2CC[C@@]3(CCc4cc(-c5nnn(C)n5)c(C)nc4N3)C2)nc(C(F)F)n1 (single isomer, unassigned) [Example 128]
0.9 nM	4.2 nM	–	–	Cc1nc2c(cc1-c1ncccn1)CC[C@@]1(CCN(C(=O)[C@H](C)c3ccc(Cl)cc3Cl)C1)N2 (single isomer, unassigned) [Example 34]
0.53 nM	0.12 nM	–	–	COc1cc([C@@H](C)C(=O)N2CC[C@@]3(CCc4cc(-c5ncccn5)c(C)nc4N3)C2)c(C(F)(F)F)cn1 (single isomer, unassigned) [Example 41]
–	–	3.4 nM	35 nM	COc1ncc(F)c([C@@H](C)C(=O)N2CC[C@@]3(CCc4cc(-c5nc6ccccn6n5)c(C)nc4N3)C2)n1 (single isomer, unassigned) [Example 132]
–	–	0.48 nM	0.25 nM	COc1cc([C@@H](C)C(=O)N2CCC3(CCc4cc(-c5nc(OC)n(C)n5)c(C)nc4N3)C2)c(Cl)cn1 (single isomer, unassigned) [Example 114]
0.62 nM	1.2 nM	–	–	Cc1nc2c(cc1-c1ncccn1)CC[C@@]1(CCN(C(=O)[C@H](C)c3cc(OC(F)F)ncc3F)C1)N2 (single isomer, unassigned) [Example 78]
0.52 nM	0.19 nM	–	–	COc1cc([C@@H](C)C(=O)N2CC[C@@]3(CCc4cc(-c5ncccn5)c(C)nc4N3)C2)c(C(F)F)cn1 (single isomer, unassigned) [Example 36]
54 nM	> 95 nM	–	–	Cc1nc2c(cc1-c1ncccn1)CC[C@@]1(CCN(C(=O)[C@H](C)c3cc(F)c(F)cc3F)C1)N2 (single isomer, unassigned) [Example 53]

Compound	Ki (hMC4R; [2])	Kb [1, 3]	Ki (hMC4R; read-out: Ki (nM) geometric)	Kb [1, 4]
Cc1nc2c(cc1-c1ncccn1)CC[C@@]1(CCN(C(=O)C(C)c3cc(OC(F)(F)F)ncc3Cl)C1)N2 (single isomer, unassigned) [Example 64]	1 nM	5.1 nM	–	–
